Assay results reported in patent US9624214B2, “Amino-substituted imidazo[1,2-a]pyridinecarboxamides and their use” (BAYER PHARMA AKTIENGESELLSCHAFT, priority 2012, dated 2017).

Biological target: T1, recombinant guanylate cyclase reporter cell line (Rattus norvegicus, UniProt P19686+P20595)
T1 construct: expressed in transfected cells
T1 sequence (P20595 1-619): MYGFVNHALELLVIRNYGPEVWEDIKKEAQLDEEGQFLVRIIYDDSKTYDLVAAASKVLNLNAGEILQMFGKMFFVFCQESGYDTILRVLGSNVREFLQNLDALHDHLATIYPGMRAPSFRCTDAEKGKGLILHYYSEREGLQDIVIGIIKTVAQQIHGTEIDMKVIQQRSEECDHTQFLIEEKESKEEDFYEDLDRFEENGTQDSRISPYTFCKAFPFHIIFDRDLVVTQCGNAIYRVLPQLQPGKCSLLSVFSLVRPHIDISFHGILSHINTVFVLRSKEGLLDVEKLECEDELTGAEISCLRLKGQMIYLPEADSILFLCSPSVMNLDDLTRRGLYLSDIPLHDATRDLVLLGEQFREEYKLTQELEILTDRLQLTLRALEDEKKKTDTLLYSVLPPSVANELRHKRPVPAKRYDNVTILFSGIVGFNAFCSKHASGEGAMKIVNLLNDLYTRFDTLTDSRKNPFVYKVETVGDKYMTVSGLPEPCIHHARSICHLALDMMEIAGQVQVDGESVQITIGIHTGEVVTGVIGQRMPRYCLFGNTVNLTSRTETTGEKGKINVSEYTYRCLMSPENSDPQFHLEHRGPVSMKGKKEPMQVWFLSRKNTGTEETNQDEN
T1 sequence (P19686 1-690): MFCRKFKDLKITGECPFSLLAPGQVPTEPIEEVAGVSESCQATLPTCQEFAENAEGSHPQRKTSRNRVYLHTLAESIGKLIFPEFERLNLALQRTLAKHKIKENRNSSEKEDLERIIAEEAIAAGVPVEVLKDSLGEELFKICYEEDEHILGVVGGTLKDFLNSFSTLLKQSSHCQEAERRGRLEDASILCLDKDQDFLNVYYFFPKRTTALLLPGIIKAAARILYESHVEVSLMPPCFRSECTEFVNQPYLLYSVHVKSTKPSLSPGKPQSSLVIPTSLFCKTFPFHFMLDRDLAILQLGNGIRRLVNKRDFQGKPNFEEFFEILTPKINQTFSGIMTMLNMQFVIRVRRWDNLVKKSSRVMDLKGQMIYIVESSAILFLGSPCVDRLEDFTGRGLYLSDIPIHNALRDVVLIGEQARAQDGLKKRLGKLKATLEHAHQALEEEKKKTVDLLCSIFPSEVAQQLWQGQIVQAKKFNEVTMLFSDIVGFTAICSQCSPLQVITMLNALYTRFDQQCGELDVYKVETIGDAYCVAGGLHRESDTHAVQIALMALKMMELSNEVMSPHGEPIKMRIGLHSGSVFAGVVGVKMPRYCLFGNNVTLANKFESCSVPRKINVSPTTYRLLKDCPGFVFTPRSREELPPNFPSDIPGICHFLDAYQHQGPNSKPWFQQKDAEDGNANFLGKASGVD
Test: B-2. Action on recombinant guanylate cyclase reporter cell line
Type: cell-based
Conditions: MEC = minimal effective concentration; in some cases mean values from individual determinations
Outline: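 Cellular activity was measured in a reporter cell line expressing recombinant guanylate cyclase. Values are given as MEC, the minimal effective concentration, and some are means of individual determinations.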

Structure (SMILES)	MEC [µM]
Cc1cc(OCc2c(F)cccc2F)c2nc(C)c(C(=O)NC[C@H]3CCCCN3)n2c1 [Example 173, 8-[(2,6-Difluorobenzyl)oxy]-2,6-dimethyl-N-[(2R)-piperidin-2-ylmethyl]imidazo[1,2-a]pyridine-3-carboxamide]	0.30
Cc1cc(OCc2c(F)cccc2F)c2nc(C)c(C(=O)NCC3(N)COC3)n2c1 [Example 216, N-[(3-Aminooxetan-3-yl)methyl]-8-[(2,6-difluorobenzyl)oxy]-2,6-dimethylimidazo[1,2-a]pyridine-3-carboxamide]	1.00
Cc1cc(OCc2c(F)cccc2F)c2nc(C)c(C(=O)N[C@@H]3CCCC[C@H]3N)n2c1 [Example 251, ent-N-[(1R,2R)-2-Aminocyclohexyl]-8-[(2,6-difluorobenzyl)oxy]-2,6-dimethylimidazo[1,2-a]-pyridine-3-carboxamide]	3.00
CCC(N)(CC)CNC(=O)c1c(C)nc2c(OCc3c(F)cccc3F)cccn12 [Example 253, N-(2-Amino-2-ethylbutyl)-8-[(2,6-difluorobenzyl)oxy]-2-methylimidazo[1,2-a]pyridine-3-carboxamide]	0.10
Cc1cc(OCc2c(F)cccc2F)c2nc(C)c(C(=O)NCCNC(C)(C)C)n2c1 [Example 255, N-[2-(tert-Butylamino)ethyl]-8-[(2,6-difluorobenzyl)oxy]-2,6-dimethylimidazo[1,2-a]pyridine-3-carboxamide]	0.30
CCCC(C)(N)CNC(=O)c1c(C)nc2c(OC(C)c3c(F)cccc3F)cc(C)cn12 (stereo not drawn) [Example 257, N-(2-Amino-2-methylpentyl)-8-[1-(2,6-difluorophenyl)ethoxy]-2,6-dimethylimidazo[1,2-a]-pyridine-3-carboxamide]	1.00
Cc1cc(OCc2c(F)ccc(F)c2F)c2nc(C)c(C(=O)NCC(C)(C)N)n2c1 [Example 276, N-(2-Amino-2-methylpropyl)-2,6-dimethyl-8-[(2,3,6-trifluorobenzyl)oxy]imidazo[1,2-a]pyridine-3-carboxamide]	0.10
COC(=O)[C@@H](N)CCCCNC(=O)c1c(C)nc2c(OCc3c(F)cccc3F)cc(C)cn12 [Example 294, Methyl N^6-({8-[(2,6-difluorobenzyl)oxy]-2,6-dimethylimidazo[1,2-a]pyridin-3-yl}carbonyl)-L-lysinate]	0.065
CCCC(C)(N)CNC(=O)c1c(C(F)(F)F)nc2c(OCc3c(F)cccc3F)cc(C)cn12 (stereo not drawn) [Example 305, ent-N-(2-amino-2-methylpentyl)-8-[(2,6-difluorobenzyl)oxy]-6-methyl-2-(trifluoromethyl)imidazo[1,2-a]pyridine-3-carboxamide]	0.10
CCCC(C)(N)CNC(=O)c1c(C)nc2c(OCc3c(F)cccc3F)cc(Br)cn12 (stereo not drawn) [Example 306, ent-N-(2-amino-2-methylpentyl)-6-bromo-8-[(2,6-difluorobenzyl)oxy]-2-methylimidazo[1,2-a]pyridine-3-carboxamide]	0.10
Cc1cc(OCc2c(F)cccc2F)c2nc(C)c(C(=O)NCC3(N)CCCCC3)n2c1 [Example 307, N-[(1-aminocyclohexyl)methyl]-8-[(2,6-difluorobenzyl)oxy]-2,6-dimethylimidazo[1,2-a]pyridine-3-carboxamide]	0.65
Cc1cc(OCc2c(F)cccc2F)c2nc(C)c(C(=O)N[C@H]3C[C@H]4CN(C)CCN4C3)n2c1 [Example 314, 8-[(2,6-Difluorobenzyl)oxy]-2,6-dimethyl-N-[(7S,8aS)-2-methyloctahydropyrrolo[1,2-a]pyrazin-7-yl]imidazo[1,2-a]pyridine-3-carboxamide]	0.30
CCC(C)(CN)NC(=O)c1c(C)nc2c(OCc3c(F)ccc(F)c3F)cc(C)cn12 (stereo not drawn) [Example 315, ent-N-(1-amino-2-methylbutan-2-yl)-2,6-dimethyl-8-[(2,3,6-trifluorobenzyl)oxy]imidazo[1,2-a]pyridine-3-carboxamide]	0.30
CCCC(C)(N)CNC(=O)c1c(C)nc2c(OCc3c(F)cccc3F)cccn12 (stereo not drawn) [Example 318, ent-N-(2-amino-2-methylpentyl)-8-[(2,6-difluorobenzyl)oxy]-2-methylimidazo[1,2-a]pyridine-3-carboxamide]	0.30
COC(=O)[C@@H](N)CNC(=O)c1c(C)nc2c(OCc3c(F)cccc3F)cc(C)cn12 [Example 319, Methyl 3-[({8-[(2,6-difluorobenzyl)oxy]-2,6-dimethylimidazo[1,2-a]pyridin-3-yl}carbonyl)amino]-L-alaninate]	0.30
CCCC(C)(N)CNC(=O)c1c(C2CC2)nc2c(OCc3c(F)cccc3F)cc(C)cn12 (stereo not drawn) [Example 322, ent-N-(2-amino-2-methylpentyl)-2-cyclopropyl-8-[(2,6-difluorobenzyl)oxy]-6-methylimidazo[1,2-a]pyridine-3-carboxamide]	0.30
CCCC(C)(N)CNC(=O)c1c(C)nc2c(OCc3c(F)cccc3F)cc(CC)cn12 (stereo not drawn) [Example 323, ent-N-(2-amino-2-methylpentyl)-8-[(2,6-difluorobenzyl)oxy]-6-ethyl-2-methylimidazo[1,2-a]pyridine-3-carboxamide]	0.30
Cc1cc(OCc2c(F)cccc2F)c2nc(C)c(C(=O)N[C@@H]3CC[C@](C)(N)C3(C)C)n2c1 [Example 324, N-[(1R,3S)-3-amino-2,2,3-trimethylcyclopentyl]-8-[(2,6-difluorobenzyl)oxy]-2,6-dimethylimidazo[1,2-a]pyridine-3-carboxamide]	1.00
CCCc1nc2c(OCc3c(F)cccc3F)cc(C)cn2c1C(=O)NCC(C)(N)CC (stereo not drawn) [Example 327, ent-N-(2-amino-2-methylbutyl)-8-[(2,6-difluorobenzyl)oxy]-6-methyl-2-propylimidazo[1,2-a]pyridine-3-carboxamide]	1.00
CCCC(C)(N)CNC(=O)c1c(CC)nc2c(OCc3c(F)cccc3F)cc(C)cn12 (stereo not drawn) [Example 338, ent-N-(2-amino-2-methylpentyl)-8-[(2,6-difluorobenzyl)oxy]-2-ethyl-6-methylimidazo[1,2-a]pyridine-3-carboxamide]	0.10
Cc1cc(OCc2c(F)cccc2F)c2nc(C)c(C(=O)NCC(C)(C)NCCO)n2c1 [Example 349, 8-[(2,6-Difluorobenzyl)oxy]-N-{2-[(2-hydroxyethyl)amino]-2-methylpropyl}-2,6-dimethylimidazo[1,2-a]pyridine-3-carboxamide]	1.00
COc1cccc(F)c1COc1cc(C)cn2c(C(=O)NCC(C)(C)N)c(C)nc12 [Example 352, N-(2-amino-2-methylpropyl)-8-[(2-fluoro-6-methoxybenzyl)oxy]-2,6-dimethylimidazo[1,2-a]pyridine-3-carboxamide]	3.00
CCCC(C)(N)CNC(=O)c1c(C)nc2c(OCc3ccccc3Br)cc(C)cn12 (stereo not drawn) [Example 353, N-(2-amino-2-methylpentyl)-8-[(2-bromobenzyl)oxy]-2,6-dimethylimidazo[1,2-a]pyridine-3-carboxamide]	3.00
CCCC(C)(N)CNC(=O)c1cnc2c(OCc3c(F)cccc3F)cccn12 (stereo not drawn) [Example 354, ent-N-(2-amino-2-methylpentyl)-8-[(2,6-difluorobenzyl)oxy]imidazo[1,2-a]pyridine-3-carboxamide]	3.00
